Experimental data from patent US20200199104A1, “Novel Polymorphic Forms of a TGFBeta Inhibitor” (PFIZER INC., priority 2018, published 2020).

Assay: Critical water activity of solid forms, samples tested by powder X-ray diffraction
Assay type: physicochemical
Text: Critical water activity is a phase boundary above which a hydrate is a stable form. […] Values of aw. correspond to percent humidity, where the percent humidity is described as 100 x aw. Thus 0.1 aw corresponds to 10% humidity, 0.2 aw corresponds to 20% humidity, and so on. The claimed polymorphic forms of Compound 1 mono-hydrochloride interconvert between Form 1 and Form 2 at a critical water activity of between 0.60 and 0.65 (corresponding to a relative humidity of between 60% and 65%). The critical water activity of the free base form of Compound 1 is between 0.2 and 0.3 (corresponding to a relative humidity between 20% and 30%). It is noted that manufacturing processes are routinely run at relative humidities that exceed 30% relative humidity, but manufacturing processes run at relative humidities of >60% are unusual. Samples were tested using powder X-ray diffraction. Analysis was conducted using a Bruker AXS D8 Endeavor diffractometer equipped with a Cu radiation source. The divergence slit was set at 6 mm continuous illumination. Diffracted radiation was detected by a PSD-Lynx Eye detector, with the detector PSD opening set at 4.104 degrees. The X-ray tube voltage and amperage were set to 40 kV and 40 mA respectively. Data was collected in the Theta-Theta goniometer at the Cu wavelength from 3.0 to 40.0 degrees 2-Theta using a step size of 0.020 degrees and a step time of 0.3 second. Samples were prepared by placing them in a silicon low background sample holder and rotated during collection. Data were collected using Bruker DIFFRAC Plus software and analysis was performed by EVA diffract plus software.

| SMILES | PXRD Result (solid form) (Water Activity at Room Temperature 0.60 aw) | PXRD Result (solid form) (Water Activity at Room Temperature 0.65 aw) | PXRD Result (solid form) (Water Activity at Room Temperature 0.70 aw) | PXRD Result (solid form) (Water Activity at Room Temperature 0.75 aw) | PXRD Result (solid form) (Water Activity at Room Temperature 0.80 aw) | PXRD Result (solid form) (Water Activity at Room Temperature 0.1 aw) | PXRD Result (solid form) (Water Activity at Room Temperature 0.2 aw) | PXRD Result (solid form) (Water Activity at Room Temperature 0.3 aw) | PXRD Result (solid form) (Water Activity at Room Temperature 0.5 aw) | PXRD Result (solid form) (Water Activity at Room Temperature 1.0 Aw) |
| --- | --- | --- | --- | --- | --- | --- | --- | --- | --- | --- |
| CC(C)c1cnc(-c2cc(Cl)ccc2F)cc1Nc1ccncc1C(=O)NC(CO)CO.Cl [Compound 1, mono-HCl salt, 4-(2-(5-chloro-2-fluorophenyl)-5-isopropylpyridin-4-ylamino)-N-(1,3-dihydroxypropan-2-yl)nicotinamide mono hydrochloride] | Form 1 | Form 2 | Form 2 | Form 2 | Form 2 |  |  |  |  |  |
| CC(C)c1cnc(-c2cc(Cl)ccc2F)cc1Nc1ccncc1C(=O)NC(CO)CO [Compound 1, Free Base, 4-(2-(5-chloro-2-fluorophenyl)-5-isopropylpyridin-4-ylamino)-N-(1,3-dihydroxypropan-2-yl)nicotinamide] |  |  |  |  |  | free base anhydrous | free base anhydrous | free base monohydrate | free base monohydrate | free base monohydrate |
